ChEMBL document CHEMBL1201862, “PubChem BioAssay data set” (2004)
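96-well plates; 48 h exposure; 5 concentrations. Endpoints by linear interpolation between flanking doses. Not reached: highest tested concentration assigned. Abbreviation: GI50, concentration required for 50% inhibition of growth.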 Active and inactive are the calls of the source. Rule as the data show it: active = GI50 up to about 1.1 µM and inactive = higher. Where a SMILES comes first, the peptide text is derived from it. The star is where a group is joined. Cbz = O=C(OCc1ccccc1)*

Columns and labels:
Assay in all cases: NCI tumour cell line growth inhibition, 48 h
HL-60 = system: HL-60
BT-549 = system: BT-549
MOLT-4 = system: MOLT-4
CAKI-1 = system: CAKI-1
COLO 205 = system: COLO 205
MCF7 = system: MCF7
ACHN = system: ACHN
SF-268 = system: SF-268
PC-3 = system: PC-3
KM12 = system: KM12
SF-295 = system: SF-295
786-0 = system: 786-0
OVCAR-3 = system: OVCAR-3
A549 = system: A549
SNB-75 = system: SNB-75
MDA-MB-231 = system: MDA-MB-231
UACC-257 = system: UACC-257
SN12C = system: SN12C
HOP-92 = system: HOP-92
SR = system: SR

SMILES | GI50 (HL-60) | GI50 (BT-549) | GI50 (MOLT-4) | GI50 (CAKI-1) | GI50 (COLO 205) | GI50 (MCF7) | GI50 (ACHN) | GI50 (SF-268) | GI50 (PC-3) | GI50 (KM12) | GI50 (SF-295) | GI50 (786-0) | GI50 (OVCAR-3) | GI50 (A549) | GI50 (SNB-75) | GI50 (MDA-MB-231) | GI50 (UACC-257) | GI50 (SN12C) | GI50 (HOP-92) | GI50 (SR)
CN1CCC2(CC1)C(=O)N(NC(N)=O)C(=O)C2c1ccccc1 (stereo not given) | > 100 µM (inactive) | > 100 µM (inactive) | > 100 µM (inactive) | > 100 µM (inactive) | > 100 µM (inactive) | > 10 µM (inactive) | > 100 µM (inactive) | > 100 µM (inactive) | > 100 µM (inactive) | > 100 µM (inactive) | > 100 µM (inactive) | > 100 µM (inactive) | > 100 µM (inactive) | > 100 µM (inactive) | > 100 µM (inactive) | > 100 µM (inactive) | > 100 µM (inactive) | > 100 µM (inactive) | – | –
CNC(=O)c1ccccc1[S+]1c2cccc3cccc(c23)C(=O)N1C (stereo not given) | > 100 µM (inactive) | > 100 µM (inactive) | > 100 µM (inactive) | > 100 µM (inactive) | > 100 µM (inactive) | > 100 µM (inactive) | > 100 µM (inactive) | > 100 µM (inactive) | > 100 µM (inactive) | > 100 µM (inactive) | > 100 µM (inactive) | > 100 µM (inactive) | > 100 µM (inactive) | > 100 µM (inactive) | – | > 100 µM (inactive) | > 100 µM (inactive) | > 100 µM (inactive) | > 100 µM (inactive) | –
CCOC(=O)C(=O)CC(=O)C1=C(c2ccccc2OC)CC(c2cccs2)=CC1=O | 55 µM (inactive) | > 100 µM (inactive) | 37.1 µM (inactive) | 57.1 µM (inactive) | 39.7 µM (inactive) | – | > 100 µM (inactive) | > 100 µM (inactive) | 24 µM (inactive) | 34.3 µM (inactive) | 18.7 µM (inactive) | > 100 µM (inactive) | 41.9 µM (inactive) | 43.5 µM (inactive) | 0.418 µM (active) | 93.3 µM (inactive) | > 100 µM (inactive) | > 100 µM (inactive) | 71.1 µM (inactive) | –
O=S(=O)(/N=C(\NO)Nc1ccc(Cl)cc1)c1cccc2nsnc12 | 13.4 µM (inactive) | 28.6 µM (inactive) | 12.8 µM (inactive) | 12.9 µM (inactive) | 32.4 µM (inactive) | – | 34.4 µM (inactive) | 34.4 µM (inactive) | 30.3 µM (inactive) | 31 µM (inactive) | 57.9 µM (inactive) | 21.6 µM (inactive) | 18.7 µM (inactive) | 45.5 µM (inactive) | 31.8 µM (inactive) | 77.1 µM (inactive) | 31 µM (inactive) | 21.9 µM (inactive) | 22.1 µM (inactive) | –
CCOC(=O)CNC(=O)C(C)NC(=O)C(NC(=O)OCc1ccccc1)C(C)C (stereo not drawn) (Cbz-Val-Ala-Gly-OEt; configuration not given here) | – | 58.7 µM (inactive) | 32 µM (inactive) | > 100 µM (inactive) | > 100 µM (inactive) | > 100 µM (inactive) | > 100 µM (inactive) | > 100 µM (inactive) | > 100 µM (inactive) | > 100 µM (inactive) | > 100 µM (inactive) | > 100 µM (inactive) | > 100 µM (inactive) | > 100 µM (inactive) | > 100 µM (inactive) | – | > 100 µM (inactive) | > 100 µM (inactive) | > 100 µM (inactive) | > 100 µM (inactive)
O=C1c2ccccc2-c2ccc(/N=[N+](/[O-])c3ccc4c(c3)C(=O)c3ccccc3-4)cc21 | > 100 µM (inactive) | > 100 µM (inactive) | > 100 µM (inactive) | > 100 µM (inactive) | > 100 µM (inactive) | > 100 µM (inactive) | > 100 µM (inactive) | > 100 µM (inactive) | > 100 µM (inactive) | > 100 µM (inactive) | > 100 µM (inactive) | > 100 µM (inactive) | > 100 µM (inactive) | > 100 µM (inactive) | > 100 µM (inactive) | > 100 µM (inactive) | > 100 µM (inactive) | > 100 µM (inactive) | > 100 µM (inactive) | –
CCOP(=O)(OCC)/C(=C\N1C(=O)CC(=O)NC1=S)C(=O)OC | > 100 µM (inactive) | > 100 µM (inactive) | > 100 µM (inactive) | > 100 µM (inactive) | > 100 µM (inactive) | > 100 µM (inactive) | > 100 µM (inactive) | > 100 µM (inactive) | – | > 100 µM (inactive) | > 100 µM (inactive) | > 100 µM (inactive) | > 100 µM (inactive) | > 100 µM (inactive) | > 100 µM (inactive) | > 100 µM (inactive) | > 100 µM (inactive) | > 100 µM (inactive) | > 100 µM (inactive) | –
CC1=NCC[N+]1(CCc1ccccc1)Cc1ccccc1 (stereo not given) | 16.6 µM (inactive) | 33.6 µM (inactive) | – | – | 5.93 µM (inactive) | 47.9 µM (inactive) | > 100 µM (inactive) | 27.6 µM (inactive) | – | 47.2 µM (inactive) | > 100 µM (inactive) | > 100 µM (inactive) | 5.71 µM (inactive) | 13.4 µM (inactive) | > 100 µM (inactive) | 62.4 µM (inactive) | 19.3 µM (inactive) | 45.5 µM (inactive) | 4.78 µM (inactive) | 13.4 µM (inactive)
Cc1nc(N)c(N2CCN([N+](=O)[O-])CC2)c(O)n1 | > 100 µM (inactive) | > 100 µM (inactive) | > 100 µM (inactive) | – | > 100 µM (inactive) | > 100 µM (inactive) | > 100 µM (inactive) | > 100 µM (inactive) | > 100 µM (inactive) | > 100 µM (inactive) | > 100 µM (inactive) | > 100 µM (inactive) | > 100 µM (inactive) | > 100 µM (inactive) | > 100 µM (inactive) | > 100 µM (inactive) | > 100 µM (inactive) | > 100 µM (inactive) | – | > 100 µM (inactive)
C=C(C)[C@@H]1CCC2=C[C@@H](OC2=O)[C@@H](C(=C)C)C2=CC(C(=O)O)=C(C1)O2 | 78 µM (inactive) | > 100 µM (inactive) | 46.3 µM (inactive) | > 100 µM (inactive) | > 100 µM (inactive) | 68.1 µM (inactive) | > 100 µM (inactive) | > 100 µM (inactive) | – | 80.2 µM (inactive) | > 100 µM (inactive) | > 100 µM (inactive) | 34.1 µM (inactive) | > 100 µM (inactive) | > 100 µM (inactive) | > 100 µM (inactive) | > 100 µM (inactive) | > 100 µM (inactive) | > 100 µM (inactive) | –
CC(=O)OC1CC2C(C)(C)C(=O)C=CC2(C)C2CCC3(C)C(c4ccoc4)OC(=O)C4OC43C12C (stereo not given) | 5.55 µM (inactive) | 5.77 µM (inactive) | 8.2 µM (inactive) | 11.9 µM (inactive) | 7.5 µM (inactive) | 4.69 µM (inactive) | 8.73 µM (inactive) | 28.5 µM (inactive) | 6.61 µM (inactive) | 3.92 µM (inactive) | 14.6 µM (inactive) | 9.46 µM (inactive) | 21.6 µM (inactive) | 7.66 µM (inactive) | > 100 µM (inactive) | 3.85 µM (inactive) | 15.9 µM (inactive) | 4.21 µM (inactive) | 14.5 µM (inactive) | –
COc1ccc(N2C(=O)C3c4[nH]c5c(C)cccc5c4C4CCC(c5ccccc5)CC4C3C2=O)cc1 (stereo not given) | – | 24.9 µM (inactive) | 3.4 µM (inactive) | 16.9 µM (inactive) | 8.63 µM (inactive) | 6.28 µM (inactive) | 19.7 µM (inactive) | 6.65 µM (inactive) | 12.1 µM (inactive) | 12.6 µM (inactive) | 17.5 µM (inactive) | 3.9 µM (inactive) | 24.8 µM (inactive) | 8.57 µM (inactive) | 10.7 µM (inactive) | 16.3 µM (inactive) | 16.8 µM (inactive) | 16.2 µM (inactive) | 15 µM (inactive) | –
O=C1OC(=O)c2cc(S(=O)(=O)c3ccc4c(c3)C(=O)OC4=O)ccc21 | – | > 100 µM (inactive) | – | > 100 µM (inactive) | > 100 µM (inactive) | > 100 µM (inactive) | > 100 µM (inactive) | > 100 µM (inactive) | > 100 µM (inactive) | > 100 µM (inactive) | > 100 µM (inactive) | > 100 µM (inactive) | > 100 µM (inactive) | > 100 µM (inactive) | 26.1 µM (inactive) | > 100 µM (inactive) | > 100 µM (inactive) | > 100 µM (inactive) | – | –
CSc1nncc(-c2cc3c(c(SC)n2)CCC3)n1 | > 100 µM (inactive) | > 100 µM (inactive) | – | 40.7 µM (inactive) | > 100 µM (inactive) | – | 53.6 µM (inactive) | 76 µM (inactive) | > 100 µM (inactive) | > 100 µM (inactive) | > 100 µM (inactive) | 79.6 µM (inactive) | > 100 µM (inactive) | > 100 µM (inactive) | 22.1 µM (inactive) | 18.9 µM (inactive) | > 100 µM (inactive) | > 100 µM (inactive) | – | –
Nc1ccc(S(=O)(=O)Nc2nnc(S(N)(=O)=O)s2)cc1 | > 100 µM (inactive) | > 100 µM (inactive) | > 100 µM (inactive) | > 100 µM (inactive) | > 100 µM (inactive) | > 100 µM (inactive) | > 100 µM (inactive) | > 100 µM (inactive) | – | > 100 µM (inactive) | > 100 µM (inactive) | > 100 µM (inactive) | – | > 100 µM (inactive) | > 100 µM (inactive) | > 100 µM (inactive) | – | – | 34.5 µM (inactive) | > 100 µM (inactive)
